This is an account of results in US8618051B2, “Vesiculins” (Auckland Uniservices Limited, priority 2005, dated 2013).

The assay deals with rat soleus muscle strips. As to the kind of experiment: rat soleus muscle assay: D-[14C(U)]-glucose incorporation into muscle glycogen. Conditions: isolated soleus muscle strips of fasted male Wistar rats; peptide 0.71 nM to 237 nM; 120 minutes at 30° C.; read-out: EC50, stimulating the uptake and incorporation of radioactive glucose into muscle glycogen. The method, then: The soleus muscle was dissected from anaesthetized fasted male Wistar rats (200 g±20 g). Each muscle was then teased longitudinally into 3 equal strips with a final radius of approximately 1.5 mm. An average of six muscle strips were transferred into flasks, containing 10 ml of carbogen-saturated nDMEM and peptide (vesiculin, insulin-II, or commercial human IGF-II (GroPep)) at concentrations ranging from 0.71 nM to 237 nM, before the addition of 10 μl of (0.5 μCi) D-[^14C(U)]-Glucose. Flasks were then incubated in a shaking water bath for 120 minutes at 30° C. under a stream of carbogen.
After incubation, the muscle strips were removed and blotted dry before being frozen instantly in liquid nitrogen and freeze-dried for 24 hours. The dried weight of muscle strip was recorded before the muscle strips were solubilised in 250 μl of 60% KOH (70° C. water bath for 45 minutes). 750 μl of ice-cold ethanol was then added and the tubes were left overnight at −20° C. to facilitate glycogen precipitation. Tubes were then centrifuged at 9000 g for 15 minutes at 0° C., the supernatant aspirated and the glycogen pellet resuspended in 750 μl of ice-cold ethanol. […] The tubes were mixed thoroughly, and then counted using a Beckman LS 3801 β-counter. The amount of D-[^14C(U)]-Glucose incorporation into muscle glycogen was calculated by dividing the cpm values by the dry muscle weight. […]

On to “human IGF-II: commercial human IGF-II (GroPep), used as a further positive control”, for which the EC50 was determined as 48 nM.

Turning to “mouse insulin-II: insulin-II co-purified from βTC6-F7 granules as a preparative control”, the EC50 was 27 nM.
